From ChEMBL document CHEMBL1144756, “Isoprenoid glycosides from Liriosma ovata” (2008) come the findings set out here.

Converted amounts (≈) assume the structure as drawn.

What all share (type): functional
Experiment [1] deals with Staphylococcus aureus. Description: Antibacterial activity against Staphylococcus aureus ATCC 6538 after 24 hrs by broth microdilution method. Conditions: ATCC 6538, 24 h. (Dilution methods test growth across graded concentrations, often in twofold steps.)
The test system of experiment [2] is Pseudomonas aeruginosa. Description: Antibacterial activity against Pseudomonas aeruginosa ATCC 9027 after 24 hrs by broth microdilution method. Conditions: ATCC 9027, 24 h.
Experiment [3] relates to Mus musculus. Nature of the experiment: Antiinflammatory activity against corton oil-induced ear edema in mouse.

`CC(=O)/C=C/[C@@]1(O)[C@H](C)C[C@H](O[C@@H]2O[C@H](CO[C@@H]3OC[C@](O)(CO)[C@H]3O)[C@@H](O)[C@H](O)[C@H]2O)CC1(C)C`: the MIC in experiment [1] was 4 µg/mL (≈ 7.68 µM); in experiment [2] it was more than 20 µg/mL.
Taken in the same sequence, the figures for `CC(C)O[C@@H]1O[C@H](CO[C@@H]2OC[C@](O)(CO)[C@H]2O)[C@@H](O)[C@H](O)[C@H]1O` were more than 20 µg/mL and more than 20 µg/mL.
As to `CC(C)(O)[C@@H]1CC[C@]2(C)[C@@H](O[C@@H]3O[C@H](CO)[C@@H](O)[C@H](O)[C@H]3O)C[C@@H](O)[C@](C)(O)[C@H]2C1`, in experiment [1], the MBC came out at 4 µg/mL (≈ 9.21 µM) and it took 2 µg/mL (≈ 4.6 µM) to inhibit growth (MIC). In addition, in experiment [2], the MBC was determined as 4 µg/mL (≈ 9.21 µM) and the MIC was 4 µg/mL (≈ 9.21 µM).
On to `COc1ccc2c(c1)c(CC(=O)O)c(C)n2C(=O)c1ccc(Cl)cc1` [INDOMETHACIN], for which, in experiment [3], the ID50 is on record as 93 microg/cm2.

In general, MIC refers to the lowest concentration that inhibits growth of the organism. High values mean weaker potency, low ones greater potency. The term MBC denotes the smallest concentration meeting the test's criterion for killing. The low end stands for greater bactericidal potency, the high end for weaker bactericidal potency.
